These are literature values, as cited in patent publication US12471595B2, “Liquid pesticidal composition” (SUMITOMO CHEMICAL COMPANY, LIMITED, priority 2019, dated 2025).

The conditions of data set [1]: 1-octanol/water.
For data set [2] the following is noted: pH7.

Turning to `CCOC(=O)COc1ncccc1Oc1cc(-n2c(=O)cc(C(F)(F)F)n(C)c2=O)c(F)cc1Cl` [Compound A, Ethyl 2-[(3-{2-chloro-4-fluoro-5-[3-methyl-4-(trifluoromethyl)-2,6-dioxo-1,2,3,6-tetrahydropyrimidin-1(2H)-yl]phenoxy}pyridin-2-yl)oxy]acetate], the “log P at 25° C.” value in data set [1] was 3.5. Further, the “Water solubility at 25° C.” value in data set [2] is listed as 2.0 mass ppm.

For the compound `Cc1nnc(Cl)c(-c2c(F)cccc2F)c1-c1ccccc1` [Pyridachlometyl], the lipophilicity (log P) at 25° C. in data set [1] is recorded as 4.1. In data set [2], the “Water solubility at 25° C.” value is recorded as 0.6 mass ppm.

Take `COC(=O)N(OC)c1ccccc1COc1ccn(-c2ccc(Cl)cc2)n1` [Pyraclostrobin]: the “log P at 25° C.” value in data set [1] is 4.0. In data set [2], the “Water solubility at 25° C.” value is recorded as 1.9 mass ppm.

`CON(C(=O)c1cn(C)nc1C(F)F)C(C)Cc1c(Cl)cc(Cl)cc1Cl` (stereo not shown) [Pydiflumetofen]: the lipophilicity (log P) at 25° C. in data set [1] is reported as 3.8. The “Water solubility at 25° C.” value in data set [2] is 1.5 mass ppm.

For the compound `CC(O)(Cn1cncn1)c1ccc(Oc2ccc(Cl)cc2)cc1C(F)(F)F` (stereo not shown) [Mefentrifluconazole], the log partition coefficient (log P) at 25° C. in data set [1] is on record as 3.4. Further, the “Water solubility at 25° C.” value in data set [2] was 0.81 mass ppm.

What is called log P is a log measure of how a compound divides between an organic and an aqueous phase.
